Laboratory results published in patent US12503438B2, “Compounds for the treatment of kinase-dependent disorders” (Exelixis, Inc., priority 2019, dated 2025).

Target: T1, Mer (Homo sapiens, UniProt Q12866)
T1 construct: host or cells: 293A cells (Thermo Fisher #R70507)
T1 sequence (Q12866 21-999): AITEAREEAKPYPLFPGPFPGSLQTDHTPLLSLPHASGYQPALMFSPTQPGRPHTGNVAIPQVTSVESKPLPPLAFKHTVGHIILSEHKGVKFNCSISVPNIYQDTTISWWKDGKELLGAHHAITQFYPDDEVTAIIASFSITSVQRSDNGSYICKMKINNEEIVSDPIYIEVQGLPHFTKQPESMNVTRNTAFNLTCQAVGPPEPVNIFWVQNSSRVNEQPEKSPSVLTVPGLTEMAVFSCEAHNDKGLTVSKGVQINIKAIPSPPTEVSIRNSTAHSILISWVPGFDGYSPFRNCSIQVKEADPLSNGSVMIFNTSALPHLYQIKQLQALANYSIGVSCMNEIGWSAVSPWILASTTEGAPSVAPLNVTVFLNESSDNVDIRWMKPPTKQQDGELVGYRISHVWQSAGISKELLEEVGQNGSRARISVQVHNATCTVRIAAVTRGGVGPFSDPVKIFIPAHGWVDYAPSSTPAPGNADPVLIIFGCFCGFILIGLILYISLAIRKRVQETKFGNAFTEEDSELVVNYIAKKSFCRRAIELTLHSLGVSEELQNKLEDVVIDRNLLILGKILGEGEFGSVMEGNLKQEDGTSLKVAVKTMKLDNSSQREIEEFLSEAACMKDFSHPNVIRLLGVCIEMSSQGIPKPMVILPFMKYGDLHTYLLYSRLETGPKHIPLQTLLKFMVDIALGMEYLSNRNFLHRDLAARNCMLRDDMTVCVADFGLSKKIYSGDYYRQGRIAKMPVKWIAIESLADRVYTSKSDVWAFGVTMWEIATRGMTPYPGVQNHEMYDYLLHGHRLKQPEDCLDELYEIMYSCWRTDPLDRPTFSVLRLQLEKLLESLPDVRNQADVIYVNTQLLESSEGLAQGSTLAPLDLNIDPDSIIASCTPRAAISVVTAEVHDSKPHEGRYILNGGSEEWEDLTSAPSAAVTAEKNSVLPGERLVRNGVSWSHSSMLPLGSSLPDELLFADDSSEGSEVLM
Test: Mer autophosphorylation ELISA in transient transfected 293A cells
Format: cell-based
Details: cellular activity; MERTK-transfected 293A cells, phospho-Mer ELISA
Procedure: 293A cells (Thermo Fisher #R70507) were seeded at 1.5×10^6 cells/well onto 100 mm dish (Greiner #664169), in DMEM (Thermo Fisher #11995-040) containing 10% FBS (Thermo Fisher #26140-079), 1% MEM NEAA (Thermo Fisher #11140-050), 1% GlutaMax (Thermo Fisher #35050-061), and 1% Penicillin Streptomycin (Thermo Fisher #15140-122). 293A cells were incubated at 37° C., 5% CO2 for 24 h and then transfected with 6 μg MERTK DNA (Genecopoeia #EX-Z8208-M02) using TransIT LT1 transfection reagent (Mirus-Bio #MIR2305). After 24 h incubation, the transfected 293A cells were seeded at 1×10^5 cells/well onto 96-well plates (Corning #3904) in DMEM growth medium overnight. Test compounds were serially diluted to produce an 8-point dose curve in fresh serum-free medium to a final concentration of 0.3% DMSO (vehicle) and added to the cells and incubated for 1 h. Cells were then immediately lysed with 150 μL of cold 1× lysis buffer [20 mM Tris, 137 mM sodium chloride, 2 mM EDTA, 10% glycerol, 1% NP-40 alternative, 1 mM activated sodium orthovanadate, 1 mM PefaBloc SC (Sigma-Aldrich #11429868001), protease/phosphatase inhibitor tablet (Thermo Fisher #A32959)]. Lysates were clarified by centrifugation and 50 μL/well added into the human phospho-Mer DuoSet IC ELISA (R&D Systems #DYC2579-2). Assay was performed according to manufacturer's instructions and sample phospho-Mer concentrations were extrapolated using human phospho-Mer control (R&D Systems #841793) as a standard. Positive control wells (100% activity) contained DMSO-treated cell lysates. Negative control wells (0% activity) contained reference inhibitor-treated cell lysates. IC50 values were calculated by nonlinear regression analysis using a 4-parameter logistic curve fit in ActivityBase XE (IDBS).

Row | Compound | IC50 [µM]
1 | O=C(Nc1ccc(F)cc1)C1(C(=O)Nc2ccc(Oc3ccnc4cc(-c5ccnc(F)c5)ccc34)cc2)CC1 [Compound 33, 1-N′-(4-Fluorophenyl)-1-N-[4-[7-(2-fluoropyridin-4-yl)quinolin-4-yl]oxyphenyl]cyclopropane-1,1-dicarboxamide] | 0.01 to 0.1
2 | N#Cc1cc(-c2ccc3c(Oc4ccc(NC(=O)C5(C(=O)Nc6ccc(F)cc6)CC5)cc4)ccnc3c2)ccn1 [Compound 34, 1-N-[4-[7-(2-Cyanopyridin-4-yl)quinolin-4-yl]oxyphenyl]-1-N′-(4-fluorophenyl)cyclopropane-1,1-dicarboxamide] | 0.01 to 0.1
3 | Nc1ccc(-c2ccc3c(Oc4ccc(NC(=O)C5(C(=O)Nc6ccc(F)cc6)CC5)cc4)ccnc3c2)cn1 [Compound 38, 1-N-[4-[7-(6-Aminopyridin-3-yl)quinolin-4-yl]oxyphenyl]-1-N′-(4-fluorophenyl)cyclopropane-1,1-dicarboxamide] | 0.01 to 0.1
4 | O=C(Nc1ccc(F)cc1)C1(C(=O)Nc2ccc(Oc3ccnc4cc(-c5cnc6[nH]ncc6c5)ccc34)cc2)CC1 [Compound 39, 1-N′-(4-Fluorophenyl)-1-N-[4-[7-(1H-pyrazolo[3,4-b]pyridin-5-yl)quinolin-4-yl]oxyphenyl]cyclopropane-1,1-dicarboxamide] | 0.01 to 0.1
5 | N#Cc1cncc(-c2ccc3c(Oc4ccc(NC(=O)C5(C(=O)Nc6ccc(F)cc6)CC5)cc4)ccnc3c2)c1 [Compound 40, 1-N-[4-[7-(5-Cyanopyridin-3-yl)quinolin-4-yl]oxyphenyl]-1-N′-(4-fluorophenyl)cyclopropane-1,1-dicarboxamide] | 0.01 to 0.1
6 | O=C(Nc1ccc(F)cc1)C1(C(=O)Nc2ccc(Oc3ccnc4cc(-c5ccc(F)nc5)ccc34)cc2)CC1 [Compound 41, 1-N′-(4-Fluorophenyl)-1-N-[4-[7-(6-fluoropyridin-3-yl)quinolin-4-yl]oxyphenyl]cyclopropane-1,1-dicarboxamide] | 0.01 to 0.1
7 | N#Cc1ccc(-c2ccc3c(Oc4ccc(NC(=O)C5(C(=O)Nc6ccc(F)cc6)CC5)cc4)ccnc3c2)cn1 [Compound 42, 1-N-[4-[7-(6-Cyanopyridin-3-yl)quinolin-4-yl]oxyphenyl]-1-N′-(4-fluorophenyl)cyclopropane-1,1-dicarboxamide] | 0.01 to 0.1
8 | O=C(Nc1ccc(F)cc1)C1(C(=O)Nc2ccc(Oc3ccnc4cc(-c5cncc(F)c5)ccc34)cc2)CC1 [Compound 45, 1-N′-(4-Fluorophenyl)-1-N-[4-[7-(5-fluoropyridin-3-yl)quinolin-4-yl]oxyphenyl]cyclopropane-1,1-dicarboxamide] | 0.01 to 0.1
9 | Cc1cncc(-c2ccc3c(Oc4ccc(NC(=O)C5(C(=O)Nc6ccc(F)cc6)CC5)cc4)ccnc3c2)c1 [Compound 46, 1-N′-(4-Fluorophenyl)-1-N-[4-[7-(5-methylpyridin-3-yl)quinolin-4-yl]oxyphenyl]cyclopropane-1,1-dicarboxamide] | 0.1 to 0.3
10 | COc1cncc(-c2ccc3c(Oc4ccc(NC(=O)C5(C(=O)Nc6ccc(F)cc6)CC5)cc4)ccnc3c2)c1 [Compound 47, 1-N′-(4-Fluorophenyl)-1-N-[4-[7-(5-methoxypyridin-3-yl)quinolin-4-yl]oxyphenyl]cyclopropane-1,1-dicarboxamide] | 0.01 to 0.1
11 | CC(C)Oc1ccc(-c2ccc3c(Oc4ccc(NC(=O)C5(C(=O)Nc6ccc(F)cc6)CC5)cc4)ccnc3c2)cn1 [Compound 50, 1-N′-(4-Fluorophenyl)-1-N-[4-[7-(6-propan-2-yloxypyridin-3-yl)quinolin-4-yl]oxyphenyl]cyclopropane-1,1-dicarboxamide] | 0.1 to 0.3
12 | O=C(Nc1ccc(F)cc1)C1(C(=O)Nc2ccc(Oc3ccnc4cc(-c5ccc(O)nc5)ccc34)cc2)CC1 [Compound 51, 1-N′-(4-Fluorophenyl)-1-N-[4-[7-(6-hydroxypyridin-3-yl)quinolin-4-yl]oxyphenyl]cyclopropane-1,1-dicarboxamide] | 0.01 to 0.1
13 | O=C(Nc1ccc(F)cc1)C1(C(=O)Nc2ccc(Oc3ccnc4cc(-c5cccnc5O)ccc34)cc2)CC1 [Compound 52, 1-N′-(4-Fluorophenyl)-1-N-[4-[7-(2-hydroxypyridin-3-yl)quinolin-4-yl]oxyphenyl]cyclopropane-1,1-dicarboxamide] | 0.1 to 0.3
14 | Cn1nccc1-c1ccc2c(Oc3ccc(NC(=O)C4(C(=O)Nc5ccc(F)cc5)CC4)cc3)ccnc2c1 [Compound 54, 1-N′-(4-Fluorophenyl)-1-N-[4-[7-(2-methylpyrazol-3-yl)quinolin-4-yl]oxyphenyl]cyclopropane-1,1-dicarboxamide] | 0.01 to 0.1
15 | O=C(Nc1ccc(F)cc1)C1(C(=O)Nc2ccc(Oc3ccnc4cc(-c5cnoc5)ccc34)cc2)CC1 [Compound 57, 1-N′-(4-Fluorophenyl)-1-N-[4-[7-(1,2-oxazol-4-yl)quinolin-4-yl]oxyphenyl]cyclopropane-1,1-dicarboxamide] | 0.01 to 0.1
16 | O=C(Nc1ccc(F)cc1)C1(C(=O)Nc2ccc(Oc3ccnc4cc(-c5cnn(C6CCNCC6)c5)ccc34)cc2)CC1 [Compound 60, 1-N′-(4-Fluorophenyl)-1-N-[4-[7-(1-piperidin-4-ylpyrazol-4-yl)quinolin-4-yl]oxyphenyl]cyclopropane-1,1-dicarboxamide] | 0.01 to 0.1
17 | CN1CCC(n2cc(-c3ccc4c(Oc5ccc(NC(=O)C6(C(=O)Nc7ccc(F)cc7)CC6)cc5)ccnc4c3)cn2)CC1 [Compound 61, 1-N′-(4-Fluorophenyl)-1-N-[4-[7-[1-(1-methylpiperidin-4-yl)pyrazol-4-yl]quinolin-4-yl]oxyphenyl]cyclopropane-1,1-dicarboxamide] | ≤ 0.01
18 | CC(=O)N1CCC(n2cc(-c3ccc4c(Oc5ccc(NC(=O)C6(C(=O)Nc7ccc(F)cc7)CC6)cc5)ccnc4c3)cn2)CC1 [Compound 62, 1-N-[4-[7-[1-(1-Acetylpiperidin-4-yl)pyrazol-4-yl]quinolin-4-yl]oxyphenyl]-1-N′-(4-fluorophenyl)cyclopropane-1,1-dicarboxamide] | ≤ 0.01
19 | O=C(Nc1ccc(F)cc1)C1(C(=O)Nc2ccc(Oc3ccnc4cc(-c5ncco5)ccc34)cc2)CC1 [Compound 66, 1-N′-(4-Fluorophenyl)-1-N-[4-[7-(1,3-oxazol-2-yl)quinolin-4-yl]oxyphenyl]cyclopropane-1,1-dicarboxamide] | 0.01 to 0.1
20 | O=C(Nc1ccc(F)cc1)C1(C(=O)Nc2ccc(Oc3ccnc4cc(-c5cn[nH]c5)ccc34)cc2)CC1 [Compound 67, 1-N′-(4-Fluorophenyl)-1-N-[4-[7-(1H-pyrazol-4-yl)quinolin-4-yl]oxyphenyl]cyclopropane-1,1-dicarboxamide] | ≤ 0.01
21 | O=C(Nc1ccc(F)cc1)C1(C(=O)Nc2ccc(Oc3ccnc4cc(-c5ccn[nH]5)ccc34)cc2)CC1 [Compound 68, 1-N′-(4-Fluorophenyl)-1-N-[4-[7-(1H-pyrazol-5-yl)quinolin-4-yl]oxyphenyl]cyclopropane-1,1-dicarboxamide] | 0.01 to 0.1
22 | Cn1cnc(-c2ccc3c(Oc4ccc(NC(=O)C5(C(=O)Nc6ccc(F)cc6)CC5)cc4)ccnc3c2)c1 [Compound 69, 1-N′-(4-Fluorophenyl)-1-N-[4-[7-(1-methylimidazol-4-yl)quinolin-4-yl]oxyphenyl]cyclopropane-1,1-dicarboxamide] | 0.01 to 0.1
23 | O=C(Nc1ccc(F)cc1)C1(C(=O)Nc2ccc(Oc3ccnc4cc(-c5cnc[nH]5)ccc34)cc2)CC1 [Compound 72, 1-N′-(4-Fluorophenyl)-1-N-[4-[7-(1H-imidazol-5-yl)quinolin-4-yl]oxyphenyl]cyclopropane-1,1-dicarboxamide] | ≤ 0.01
